Reference: patent US20150031686A1, “PHENYL-OXAZOLYL DERIVATIVES, PREPARATION METHOD THEREOF, AND RELATED APPLICATION OF THE PHENYL-OXAZOLYL DERIVATIVES AS AN IMPDH INHIBITOR” (INSTITUTE OF MEDICINAL BIOTECHNOLOGY, CHINESE ACADEMY OF …, priority 2012, published 2015)
In brackets after ≈: the same amount, converted by molar mass.

Columns and labels:
[1] = tested on: human hepatoma cell HepG2; assay: In vitro human hepatoma cell HepG2 inhibitory activity (MTT); type: cell-based; conditions: HepG2, 48 h; for IC50: Homo sapiens
From the text: (§1) According to the progress in the studies on anticancer drugs using IMPDH as a target, the present invention measured inhibitory activities of the compounds of present invention against human hepatoma cell HepG2 and human lung adenocarcinoma cell A549, respectively, the measured results are shown in Table 5:
In Vitro Human Hepatoma Cell HepG2 Inhibitory Activity Measurement
Collect well growing tumor cells, prepare 6×10^4/ml cell suspension in RPMI-1640 or DMEM culture medium containing 10% FBS, seed in 96-well plates, 100 μl suspension each well, incubate at 37° C. under 5% CO2 atmosphere for 24 h, add the test solution (final concentration of drug: 0.625, 1.25, 2.5, 5.0, 10 μg/ml), for each concentration set three parallel holes, set positive control (cisplatin 10, 1, 0.1 μg/ml) and a blank control simultaneously. After culture for 48 h discard the supernatants, add into each well 10 μl MTT solution (5 mg/ml, prepared with RPMI-1640 medium), continue culturing for 4 It, add into each hole 100 μl acidified isopropanol cell lysate, culture overnight, measure absorbance (A) values with Bio-Tek MQX200 type microplate reader with the detection wavelength at 540 nm, and reference wavelength 450 nm. Calculate the inhibition rate as follows: inhibition rate=(Ablank−Asample)/Ablank control×100%. Use Graphpad Prism 5 statistical software to calculate IC50.

[2] = tested on: human lung adenocarcinoma cell A549; assay: In vitro human lung adenocarcinoma cell A549 inhibitory activity (MTT); type: cell-based; conditions: A549, 48 h; for IC50: Homo sapiens
From the text: as §1
In Vitro Human Lung Adenocarcinoma Cell A549 Inhibitory Activity Measurement
Cell lines: human lung adenocarcinoma cell A549. Collect well growing tumor cells, prepare cell suspension with Ham's F12 culture solution containing 10% fetal calf serum medium, seed the suspension in 96-well plates, each well 100 μl suspension at 5000 cells/well, incubate at 37° C., under 5% CO2 atmosphere, 24 h later, add 2×drug solution […], each concentration in three parallel holes, set the blank control simultaneously. After culture for 48 h, add 20 μl (5 mg/ml) MTT to each well, culture 4 h, discard the supernatants. Measure absorbance (A) values using Bio-Rad 680 microplate reader at a detection wavelength of 570 nm, the survival rate (%) is calculated as follows: AsampleAblank control×100%. Use statistical software Graphpad Prism5 to calculate IC50. After primary screening of all samples, adjust the concentration gradient of the samples with IC50<100 μg/ml to do additional screenings, which are carried out with two parallel determinations.

[3] = tested on: Coxsackie virus type B6 (COX-B6); assay: Anti-Coxsackie virus type B6 (COX-B6) activity, CPE in Vero cells; type: cell-based; conditions: Reed-Muench
Description: (§2) With Vero (African green monkey kidney) cells as viral hosts, inhibitory effects of the compounds of present invention on the grades of pathological lesions by coxsackievirus B3 (COX-B3), B6 (COX-B6) viruses in Vero cells were determined. The measured results of viral inhibitory activity of the compounds are shown in Table 3 and Table 4; wherein RBV is the control drug ribavirin. The inhibitory activities of the measured compounds against coxsackievirus B3, B6 were stronger than the control.
(§3) Screening of Anti-B3, B6 Type Coxsackie Viruses (COX-B3, COX-B6) Activity of the Samples
(§4) Prepare stock solutions of COX-B3 (or COX-B6) virus strains as well as tested compounds in DMSO before use. Before tests, dilute the stock solution with culture solution into a certain concentration and then dilute 3 times to make a total of eight dilutions. Use ribavirin (RBV) as positive control. Test procedures are as follows: seed Vero cells into 96-well culture plates, infect with 10^−5 Coxsackie virus of B3 (or B6) type, 24 hours later; adsorb subsequently for 2 hours, then discard the virus solution, add in the sample compounds and the positive control according to the abovementioned dilutions, set cell control wells and virus control wells simultaneously. When the cytopathic effect (CPE) of cells in the virus control wells reach 4+, observe CPE of the cells in each group. Use Reed-Muench method to calculate 50% inhibitory concentration (IC50) of the sample compounds against coxsackie virus B3 (or B6) type.

[4] = tested on: Coxsackie virus type B3 (COX-B3); assay: Anti-Coxsackie virus type B3 (COX-B3) activity, CPE in Vero cells; type: cell-based; conditions: Reed-Muench
Description: as §2, §3, §4

IMPDH = IMPDH inhibition activity (A340, IMP substrate, NAD); type: biochemical; conditions: compound at 10 μg/mL
Description: Measurement of IMPDH Inhibitor Activity
In 96-well plates, use IMP as the substrate and NAD, NADH as chromogenic agents to determine the activity of the compounds described in this invention as IMPDH inhibitor. Add 2 μl of each of the tested sample solution, 20 μl enzyme extract and 30 μl IMP into a sample well in the 96-well plates; 2 μl DMSO and 30 μl IMP solution into a control well; 2 μl DMSO and 20 μl IMPDH buffer instead of the enzyme extract and 30 μl IMP solution into a blank well. Keep plates at constant 37° C. for 15 min, measure absorbance values A340 (OD1) of the solutions in various wells; subsequently, add into each well with 50 μl NAD, keep at constant 37° C. for 50 min, then measure A340 (OD2) values. Calculate IMPDH inhibition rates of samples as follows: Inhibition (%)=[(OD2−OD1)control−(OD2−OD1)Sample]/[(OD2−OD1)control−(OD2−OD1)Blank]×100%.

SMILES	IC50 [3] [µg/mL]	IC50 [1] [µg/mL]	IC50 [2] [µg/mL]	IC50 [4] [µg/mL]	HepG2 IC50 [1] [µg/mL]	A549 IC50 [2] [µg/mL]	inhibition rate (%) 10 μg/mL (IMPDH) [%]
N.N.[Cl][Pt][Cl] [Cisplatin, reference compound]					104.1	263.4	
CCc1ccc(CNc2ccc(-c3cnco3)c(OC)c2)s1 [Compound 3, N-(5-ethylthien-2-ylmethyl)-3-methoxy-4-(oxazol-5-yl) aniline]	1.43 (≈ 4.55 µM)	20.9 (≈ 66.5 µM)	10.7 (≈ 34.2 µM)	0.35 (≈ 1.11 µM)			
COc1cc(NCc2ccc(-c3ccccc3)s2)ccc1-c1cnco1 [Compound 6, N-(5-phenylthien-2-ylmethyl)-3-methoxy-4-(oxazol-5-yl) aniline]	0.27 (≈ 0.745 µM)	31.8 (≈ 87.6 µM)	16.9 (≈ 46.6 µM)	0.47 (≈ 1.3 µM)			
COc1cc(NCc2ccc(C(=O)O)s2)ccc1-c1cnco1 [Compound 7, 5-(3-methoxy-4-oxazol-5-yl-anilinomethyl)-thien-2-yl carboxylic acid]	18.5 (≈ 56 µM)	> 100	> 100	> 66.7			
COc1cc(/N=C/c2cccs2)ccc1-c1cnco1 [Compound 9, N-(thien-2-ylmethylene)-3-methoxy-4-(oxazol-5-yl) aniline]	12.8 (≈ 45.1 µM)			12.8 (≈ 45.1 µM)			
COc1ccc(-c2cnco2)cc1NCc1cccs1 [Compound 21, N-(thien-2-ylmethyl)-2-methoxy-5-(oxazol-5-yl) aniline]	3.25 (≈ 11.3 µM)	> 100	122 (≈ 427 µM)	2.47 (≈ 8.63 µM)			
COc1ccc(-c2cnco2)cc1NCc1ccc(C)s1 [Compound 22, N-(5-methylthien-2-ylmethyl)-2-methoxy-5-(oxazol-5-yl) aniline]	3.83 (≈ 12.8 µM)	9.9 (≈ 33 µM)	26.2 (≈ 87.2 µM)	0.82 (≈ 2.73 µM)			
COc1cc(/N=C/c2ccc([N+](=O)[O-])o2)ccc1-c1cnco1 [Compound 49, N-(5-nitrofuran-2-methylidene)-3-methoxy-4-(oxazol-5-yl) aniline]	1.53 (≈ 4.88 µM)	0.897 (≈ 2.86 µM)	4.84 (≈ 15.4 µM)	0.82 (≈ 2.62 µM)			
COc1cc(NCc2scnc2C)ccc1-c1cnco1 [Compound 54, N-(4-methylthiazol-5-ylmethyl)-3-methoxy-4-(oxazol-5-yl) aniline]	3.18 (≈ 10.6 µM)	53.3 (≈ 177 µM)	29.5 (≈ 97.8 µM)	1.43 (≈ 4.74 µM)			
COc1cc(NCc2ccncc2)ccc1-c1cnco1 [Compound 56, N-(pyridin-4-ylmethyl)-3-methoxy-4-(oxazol-5-yl) aniline]	4.28 (≈ 15.2 µM)			5.75 (≈ 20.4 µM)			37.4
COc1cc(NCc2cccnc2Cl)ccc1-c1cnco1 [Compound 59, N-(2-chloropyridin-3-ylmethyl)-3-methoxy-4-(oxazol-5-yl) aniline]	1.05 (≈ 3.33 µM)			1.9 (≈ 6.02 µM)			
COc1ccc(CNc2ccc(-c3cnco3)c(OC)c2)cn1 [Compound 60, N-(6-methoxy-pyridin-3-ylmethyl)-3-methoxy-4-(oxazol-5-yl) aniline]	3.15 (≈ 10.1 µM)			0.57 (≈ 1.83 µM)			
COc1cc(NC/C=C/c2ccccc2)ccc1-c1cnco1 [Compound 62]	1.43 (≈ 4.67 µM)	> 100	32 (≈ 105 µM)	0.63 (≈ 2.06 µM)			
COc1cc(/N=C/c2ccc(F)cc2)ccc1-c1cnco1 [Compound 64, N-(4-Fluorophenylmethylidene)-3-methoxy-4-(oxazol-5-yl)-aniline]	17.2 (≈ 58.2 µM)			4.28 (≈ 14.4 µM)			
COc1cc(NN=C(C#N)C#N)ccc1-c1cnco1 [Compound 66]	4.28 (≈ 16 µM)			1.43 (≈ 5.35 µM)			
COc1cc(NS(=O)(=O)c2cc([N+](=O)[O-])c(Cl)s2)ccc1-c1cnco1 [Compound 99, N-(5-chloro-4-nitro-thien-2-ylsulfonyl)-3-methoxy-4-oxazole-5-yl aniline]				0.78 (≈ 1.88 µM)			
COc1cc(NCc2ccc(SC)s2)ccc1-c1cnco1 [Compound 102, N-(5-methylthiothien-2-ylmethyl)-3-methoxy-4-(oxazol-5-yl) aniline]				0.35 (≈ 1.05 µM)			
COc1cc(NCc2ccc(-c3ccc(C(F)(F)F)cc3Cl)o2)ccc1-c1cnco1 [Compound 104, N-[5-(2-chloro-4-trifluoromethylphenyl)furan-2-ylmethyl]-3-methoxy-4-oxazol-5-yl aniline]				0.45 (≈ 1 µM)			
COc1cc(NC/C=C/c2ccoc2)ccc1-c1cnco1 [Compound 105, N-(furan-3-ylpropen-1-yl)-3-methoxy-4-oxazol-5-yl aniline]				1.23 (≈ 4.15 µM)			
NC(=O)c1ncn([C@@H]2O[C@H](CO)[C@@H](O)[C@H]2O)n1 [RBV, ribavirin, reference compound]	222 (≈ 910 µM)			222 (≈ 910 µM)			

Continued, in another order:

IC50 [3] [µg/mL]	IC50 [1] [µg/mL]	IC50 [2] [µg/mL]	IC50 [4] [µg/mL]	SMILES	HepG2 IC50 [1] [µg/mL]	A549 IC50 [2] [µg/mL]	inhibition rate (%) 10 μg/mL (IMPDH) [%]
0.36 (≈ 1.07 µM)	21.7 (≈ 64.5 µM)	26.8 (≈ 79.5 µM)	0.27 (≈ 0.803 µM)	COc1cc(NCc2cc3ccccc3s2)ccc1-c1cnco1 [Compound 10, N-(benzothien-2-ylmethyl)-3-methoxy-4-(oxazol-5-yl) aniline]			
1.88 (≈ 6.96 µM)	40 (≈ 148 µM)	22.8 (≈ 84.2 µM)	0.63 (≈ 2.33 µM)	COc1cc(NCc2ccco2)ccc1-c1cnco1 [Compound 41, N-(furan-2-ylmethyl)-3-methoxy-4-(oxazol-5-yl) aniline]			
> 2.47			3.25 (≈ 9.3 µM)	COc1ccc2[nH]cc(CNc3ccc(-c4cnco4)c(OC)c3)c2c1 [Compound 52, N-(5-methoxy-1H-indol-3-ylmethyl)-3-methoxy-4-(oxazol-5-yl) aniline]			
3.25 (≈ 11.3 µM)	42.1 (≈ 147 µM)	31.9 (≈ 111 µM)	1.88 (≈ 6.54 µM)	COc1cc(NCc2cncs2)ccc1-c1cnco1 [Compound 55, N-(thiazol-5-ylmethyl)-3-methoxy-4-(oxazol-5-yl) aniline]			
7.41 (≈ 27.6 µM)			1.53 (≈ 5.7 µM)	COc1cc(NS(C)(=O)=O)ccc1-c1cnco1 [Compound 68]			
> 0.82			1.25 (≈ 3.83 µM)	COc1cc(NC/C=C(/C)CCC=C(C)C)ccc1-c1cnco1 [Compound 71, N-(3,7-dimethyl-octa-2,6-dienyl)-3-methoxy-4-(oxazol-5-yl) aniline]			
			0.46 (≈ 1.43 µM)	COc1cc(NCc2ccc3c(c2)CCO3)ccc1-c1cnco1 [Compound 100, N-(2,3-dihydobenzofuro-5-ylmethyl)-3-methoxy-4-(oxazol-5-yl) aniline]			
			0.48 (≈ 1.46 µM)	COc1cc(NCc2ccc(C(C)=O)s2)ccc1-c1cnco1 [Compound 101, N-(5-acetylthien-2-ylmethyl)-3-methoxy-4-oxazole-5-yl aniline]			
			0.4 (≈ 1.04 µM)	COc1cc(NCc2ccc(N3CCC(O)CC3)s2)ccc1-c1cnco1 [Compound 103]			
			0.44 (≈ 1.31 µM)	COc1cc(NCc2ccc3sccc3c2)ccc1-c1cnco1 [Compound 106, N-(benzothien-5-ylmethyl)-3-methoxy-4-oxazol-5-yl aniline]			
